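A five-concentration, 48-hour dose response in 96-well plates underlies each endpoint, interpolated linearly between surrounding concentrations. The concentration for 50% growth inhibition is given as GI50. TGI: concentration producing complete growth inhibition.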

Common to all, as to test: NCI tumour cell line growth inhibition, 48 h
For test [1], the system named is BT-549 breast.
In test [2] the test system is CAKI-1 renal.
Test [3] concerns EKVX NSCLC.
Test [4] relates to HCC-2998 colon.
For test [5], the system named is HT29 colon.
The subject of test [6] is KM12 colon.
Test [7] has as its system M14 melanoma.
The subject of test [8] is OVCAR-3 ovarian.
In test [9] the test system is RXF 393 renal.
Test [10] concerns UO-31 renal.

Regarding `COc1ccc(C(=NN=C(N)N)c2ccc(OC)cc2)cc1`, the GI50 is 3.94 µM in test [1]; 5.75 µM in test [2]; 4.68 µM in test [3]; 3.53 µM in [4]; 2.95 µM in test [5]; 2.31 µM in test [6]. Also, the GI50 in [7] was 2.35 µM; in test [8] it was 1.74 µM; in test [9] it was 1.81 µM; in test [10], 3.46 µM. Moreover, the TGI in test [1] came to 15.6 µM; in test [2], 21 µM; in [3], 24.7 µM; in test [4] it was 14.4 µM; in test [5], 12.6 µM; in test [6] it was 8.41 µM. The TGI in test [7] was found to be 6.36 µM; in [8] it was 4.76 µM; in [9] it was 4.82 µM; in [10] it was 15.6 µM.
For the molecule `COC(=O)[C@]12CC[C@@H](C)[C@H](C)[C@@H]1C1=CC[C@@H]3[C@@]4(C)C[C@@H](OC(=O)/C=C/c5ccccc5)[C@H](O)[C@@](C)(CO)[C@@H]4[C@H](O)C[C@@]3(C)[C@]1(C)CC2`, the GI50 in test [1] is 1.76 µM; in [2], 3.27 µM; in test [3] it was 2.94 µM; in test [4] it was 2.13 µM; in [5] it was 1.8 µM; in test [6] it was 2.05 µM. Besides, the GI50 in [7] is 2.65 µM; in [8], 1.98 µM; in test [9], 1.74 µM; in [10] it was 2.56 µM. For the same molecule, the TGI in [1] came to 3.97 µM; in test [2] it was 11.9 µM; in test [3], 11.7 µM; in [4], 4.88 µM; in [5] it was 3.81 µM; in test [6] it was 5.36 µM. For the same molecule, the TGI stood at 8.58 µM in test [7], 4.53 µM in test [8], 3.84 µM in test [9] and 11.2 µM in test [10].
For the molecule `N#CC1=C(N)NC(=S)NC12Nc1ccccc1S2` (centres undefined), the GI50 in test [1] is 18.6 µM; in [2], 15 µM; in test [3], 3.71 µM; in test [4], 33 µM; in test [5], 31 µM; in test [6] it was 24.9 µM. In addition, the GI50 was 40.1 µM in test [7], 14.6 µM in [8], 33.8 µM in [9] and 35.8 µM in test [10]. The TGI in [1] is 53 µM; in test [2], 45 µM; in test [3], 37.9 µM; in test [4], more than 100 µM; in test [5] it was more than 100 µM; in test [6], 75.5 µM. Moreover, the TGI in test [7] is more than 100 µM; in test [8], 38.1 µM; in test [9], more than 100 µM; in [10], more than 100 µM.
Take `C=C1C(=O)O[C@H]2[C@H](OC(C)=O)[C@@H](C)CCCC3(C)OC3CCC3(CO3)[C@H](O)C[C@@H]12` (some centres undefined): the GI50 in [1] is 11.4 µM; in [2], 12.1 µM; in [3], 12.1 µM; in test [4] it was 1.99 µM; in test [5], 3.42 µM; in [6], 13.6 µM. Besides, the GI50 in test [7] was 11.1 µM; in test [8] it was 3.62 µM; in test [9] it was 12.4 µM; in [10], 14.3 µM. For the same molecule, the TGI is 32 µM in [1]; 27.8 µM in [2]; 30.3 µM in [3]; 7.21 µM in [4]; more than 100 µM in test [5]; 28.5 µM in test [6]. Further, the TGI in test [7] is 23.6 µM; in test [8], 18.1 µM; in test [9], more than 100 µM; in test [10] it was 45 µM.
With `COc1ccc(/C=C2\COc3ccc(O)c(O)c3C2=O)c(OC)c1OC`, the GI50 was 4.03 µM in test [1]; 2.42 µM in test [2]; 3.65 µM in [3]; 2.18 µM in test [4]; 3.1 µM in test [5]; 2.89 µM in test [6]. For the same molecule, the GI50 in test [7] was 2.39 µM; in [8], 2.94 µM; in test [9] it was 1.87 µM; in test [10] it was 1.42 µM. For the same molecule, the TGI is 12 µM in test [1]; 11.3 µM in [2]; 25.8 µM in test [3]; 4.48 µM in test [4]; 13.8 µM in test [5]; 10.8 µM in test [6]. Moreover, the TGI in test [7] was 8.93 µM; in test [8], 11.5 µM; in test [9], 3.54 µM; in test [10], 3.02 µM.
With `COc1cc(N2C(=O)[C@H](c3ccccc3)C2c2ccc(SC)cc2)cc(OC)c1OC` (some centres undefined), the GI50 in test [1] was 0.0299 µM; in test [2] it was 0.0463 µM; in test [3], 0.0513 µM; in [4], 0.0438 µM; in test [5], 0.0324 µM; in test [6] it was 0.0352 µM. In addition, the figures for the GI50 in test [8], in [9] and in test [10] were 0.0265 µM, 0.038 µM and 0.738 µM, respectively. Also, the TGI in test [1] is 0.0937 µM; in test [2], more than 100 µM; in test [3], more than 100 µM; in test [4] it was more than 100 µM; in [5] it was 1.76 µM; in [6] it was more than 100 µM. Also, the TGI in test [8] is 0.0667 µM; in [9], more than 100 µM; in [10] it was more than 100 µM.
As to `O=C(O)c1cc(=O)cc(C(=O)O)o1`, the GI50 in [1], in [2], in test [3], in test [4], in test [5] and in test [6] was more than 100 µM in each case. Further, the GI50 in test [8], in [9] and in [10] was more than 100 µM in each case. Further, the TGI in test [1], in test [2], in test [3], in test [4], in [5] and in [6] was more than 100 µM throughout. The TGI in [8], in test [9] and in test [10] was more than 100 µM each time.
On to `Cn1cc(C2=C(c3cn(-c4ccccc4)c4ccccc34)C(=O)NC2=O)c2ccccc21`, for which the GI50 in test [1] was 16.2 µM; in test [2], 16.4 µM; in test [4] it was 24.4 µM; in test [5], 9.56 µM; in [6] it was 8.12 µM; in test [7] it was 13 µM. In addition, the results for the GI50 in test [8], in test [9] and in [10] were 14 µM, 10.2 µM and 5.35 µM, respectively. In addition, the TGI in test [1], in test [2], in test [4], in [5], in test [6] and in test [7] was more than 25 µM throughout. The TGI in test [8], in [9] and in test [10] was more than 25 µM each time.

The values above are taken from PubChem BioAssay (NCI).
